Results from patent US9121040B2, “Process for rapid anaerobic digestion of biomass using microbes and the production of biofuels therefrom” (priority 2006, dated 2015).
Like-named read-outs stand apart in the source and are kept apart here. Marks after values point to notes of the source that are not given here.

Test system: ruminal microorganisms
Assay: Effect of sulfur reducing agents on gas, volatile fatty acid and alcohol production, timothy hay with ruminal microorganisms (Example 7)
Format: cell-based, mixed rumen microorganisms from cows
Conditions: for H2 (% of all gases): 0.32 mmol/flask agent, timothy hay, mean of initial gas CO2 or N2 without added H2; for H2 (% of fermentation gas): molar percentage among gases excluding N2; for NDF remaining (% of DM): neutral detergent fiber after 24 h
Description: Initial in vitro experiments used timothy grass hay as substrate. For each digestion experiment, we obtained one-half liter of rumen contents from each of two ruminally-cannulated cows two to four hours after morning feeding. The digesta were mixed and ground in a Waring blender for 1 minute while being maintained under CO2 gas. Fluid was strained through four layers of cheese cloth followed by glass wool to remove large particles. Rumen fluid was added to a bicarbonate or 0.1 M sodium phosphate buffer with mineral salts.
Gas samples were collected continuously in mylar balloons, and gas volumes recorded at various time points. Glass tubing coated with epoxy was pushed into the opening on the mylar balloons. The tubing was connected to luer-lock connectors via nylon tubing. Samples were taken using glass syringes attached to the luer-lock connectors. Samples were stored in gas-tight vials for analysis of composition by GC with thermal conductivity detector. Rates of gas production were determined by fitting an inverted exponential equation.
The pH and reducing potential were determined using standard glass or platinum electrodes respectively, while maintaining the gas composition by keeping the flasks closed to the atmosphere with putty fitted around the electrodes. Liquid samples were collected at designated time points and analyzed by gas chromatography (GC) for alcohols (methanol, ethanol, propanol, butanol) volatile fatty acids (acetate, propionate, butyrate, etc). Rates of alcohol or VFA production were determined by fitting an inverted exponential equation.
True fiber digestibility was determined directly on the residue of digestion by refluxing in pH-neutral detergent solution for one hour, drying at 100° C. overnight and weighing.
An experiment was conducted to determine the effect of adding sulfur reducing agents on production of gases, volatile fatty acids, and alcohols. Twenty treatments were arranged in a 2×2×5 factorial design with factors of initial headspace gas (CO2 or N2), addition of 25 ml H2 gas to the initial headspace (+H2, —H2), or one of five sources of sulfur redox agents (0.32 mmol/flask): Na2SO4, Na2SO3, S^0, Na2S, or none. Samples (0.5 g timothy hay) were incubated for 24 hours and products measured as previously. At the start of the incubation, each 125-ml flask was perfused with respective gas. For treatments receiving added H2, 25 ml of perfused gas (at 1 atm pressure) was removed from the flask headspace and forced into the collection balloon. This removed gas was replaced with H2.

[1] = 24 h, mean of CO2 or N2 without added H2
[2] = mean of CO2 or N2 without added H2

With `[Na+].[Na+].[S-2]` [Na2S] the “H2 (% of all gases)” value (24 h) was 0.078^b %, the 1-propanol [1] was 0 µmol and the “2Acet + 2Butyr − Propionate (estimated production of H2 equivalent from fermentation of sugar to VFA)” value (“2Acet + 2Butyr − Propionate” for short) [1] was 2660^a μmol. The Acetate [1] was 541^a μmol, the “Acetate:Butyrate, mole ratio” value [1] was 6.91^a and the “Acetate:Propion, mole ratio” value [1] was 2.59. The Butyrate [1] was 202^a μmol, the “CH4 (% of all gases)” value [1] was 5.04^a % and the “CH4 (% of fermentation gas)” value [1] was 14.3^a %. For the same molecule, the “CH4:CO2 (molar ratio)” value [1] was 0.183^a, the “CH4:H2 (molar conc. ratio)” value [1] was 69^a and the CH4 production [1] was 335^a μmol. For the same molecule, the “CO2 (% of all gases)” value [1] was 42.9^b %, the “CO2 (% of fermentation gas)” value [1] was 85.5^b % and the CO2 production [1] was 1773^ab μmol. The Eh [1] was −269^c, the Ethanol [1] was 0 µmol and the “H2 equivalent (H2 + 4 CH4)” value [1] was 1344^a. For the same molecule, the H2 production [1] was 5.2^b μmol, the Isobutyrate [1] was 13.5^a μmol and the Isovalerate [1] was 14.7^a μmol. The Propionate [1] was 541^a μmol, the “Total VFA” value [1] was 2190^a μmol and the VFA-C [1] was 5455^a μmol. For the same molecule, the pH [1] was 6.47^b, the valerate [1] was 19.5^a μmol and the “H2 (% of fermentation gas)” value [1] was 0.24^b %. For the same molecule, the “NDF remaining (% of DM)” value [2] was 35.7^b % of DM.

In the case of `[S]` [S^0], the Eh is reported as −249^abc, the “H2 (% of all gases)” value (24 h) is reported as 0.080^b % and the 1-propanol [1] is reported as 0 µmol. For the same molecule, the “2Acet + 2Butyr − Propionate” value [1] was 2840^a μmol, the Acetate [1] was 550^a μmol and the “Acetate:Butyrate, mole ratio” value [1] was 7.57^a. For the same molecule, the “Acetate:Propion, mole ratio” value [1] was 2.72, the Butyrate [1] was 198^a μmol and the “CH4 (% of all gases)” value [1] was 4.61^a %. For the same molecule, the “CH4 (% of fermentation gas)” value [1] was 13.8^a %, the “CH4:CO2 (molar ratio)” value [1] was 0.171^a and the “CH4:H2 (molar conc. ratio)” value [1] was 79^a. The CH4 production [1] was 334^a μmol, the “CO2 (% of all gases)” value [1] was 50.5^a % and the “CO2 (% of fermentation gas)” value [1] was 86.0^b %. The CO2 production [1] was 1795^ab μmol, the Ethanol [1] was 0 µmol and the “H2 equivalent (H2 + 4 CH4)” value [1] was 1340^a. For the same molecule, the H2 production [1] was 5.9^b μmol, the Isobutyrate [1] was 12.2^a μmol and the Isovalerate [1] was 13.3^ab μmol. For the same molecule, the Propionate [1] was 550^a μmol, the “Total VFA” value [1] was 2287^a μmol and the VFA-C [1] was 5634^a μmol. The pH [1] was 6.43^b, the valerate [1] was 17.1^b μmol and the “H2 (% of fermentation gas)” value [1] was 0.22^b %. For the same molecule, the “NDF remaining (% of DM)” value [2] was 36.5^b % of DM.

`O=S(=O)([O-])[O-].[Na+].[Na+]` [SO4, Na2SO4] was tested, and the Eh was −247^ab, the “H2 (% of all gases)” value (24 h) was 0.073^b % and the 1-propanol [1] was 0 µmol. For the same molecule, the “2Acet + 2Butyr − Propionate” value [1] was 2628^a μmol, the Acetate [1] was 538^a μmol and the “Acetate:Butyrate, mole ratio” value [1] was 7.00^a. For the same molecule, the “Acetate:Propion, mole ratio” value [1] was 2.57, the Butyrate [1] was 198^a μmol and the “CH4 (% of all gases)” value [1] was 5.02^a %. For the same molecule, the “CH4 (% of fermentation gas)” value [1] was 14.4^a %, the “CH4:CO2 (molar ratio)” value [1] was 0.182^a and the “CH4:H2 (molar conc. ratio)” value [1] was 85^a. For the same molecule, the CH4 production [1] was 363^a μmol, the “CO2 (% of all gases)” value [1] was 52.1^a % and the “CO2 (% of fermentation gas)” value [1] was 85.4^b %. The CO2 production [1] was 2298^ab μmol, the Ethanol [1] was 0 µmol and the “H2 equivalent (H2 + 4 CH4)” value [1] was 1459^a. For the same molecule, the H2 production [1] was 5.0^b μmol, the Isobutyrate [1] was 12.0^a μmol and the Isovalerate [1] was 13.0^ab μmol. For the same molecule, the Propionate [1] was 538^a μmol, the “Total VFA” value [1] was 2162^a μmol and the VFA-C [1] was 5370^a μmol. The pH [1] was 6.45^b, the valerate [1] was 16.7^b μmol and the “H2 (% of fermentation gas)” value [1] was 0.24^b %. The “NDF remaining (% of DM)” value [2] was 36.0^b % of DM.

`O=S([O-])[O-].[Na+].[Na+]` [SO3, Na2SO3] was tested, and the Eh was −264^bc, the “H2 (% of all gases)” value (24 h) was 1.39^a % and the 1-propanol [1] was 5.4^6 μmol. The “2Acet + 2Butyr − Propionate” value [1] was 1483^b μmol, the Acetate [1] was 293^b μmol and the “Acetate:Butyrate, mole ratio” value [1] was 4.89^b. For the same molecule, the “Acetate:Propion, mole ratio” value [1] was 2.52, the Butyrate [1] was 152^b μmol and the “CH4 (% of all gases)” value [1] was 0.12^b %. The “CH4 (% of fermentation gas)” value [1] was 0.82^b %, the “CH4:CO2 (molar ratio)” value [1] was 0.010^b and the “CH4:H2 (molar conc. ratio)” value [1] was 0.1^b. The CH4 production [1] was 6.6^b μmol, the “CO2 (% of all gases)” value [1] was 47.9^ab % and the “CO2 (% of fermentation gas)” value [1] was 92.0^a %. The CO2 production [1] was 1002^b μmol, the Ethanol [1] was 25.8^5 μmol and the “H2 equivalent (H2 + 4 CH4)” value [1] was 103^b. The H2 production [1] was 76.6^a μmol, the Isobutyrate [1] was 9.8^b μmol and the Isovalerate [1] was 12.3^b μmol. The Propionate [1] was 293^b μmol, the “Total VFA” value [1] was 1206^b μmol and the VFA-C [1] was 3071^b μmol. The pH [1] was 6.72^a, the valerate [1] was 2.33^c μmol and the Methane production (H2 added at the beginning) was at most 5 µmol. For the same molecule, the “effect on methane production” value (each gas composition) was “strongly inhibited”, the “H2 (% of fermentation gas)” value [1] was 8.18^a % and the “NDF remaining (% of DM)” value [2] was 57.2^a % of DM. For the same molecule, the valerate (starting with CO2, H2 added) was 2.3 µmol, the valerate (starting with CO2, H2 not added) was 3.0 µmol and the valerate (starting with N2, H2 added) was 8.3 µmol. It also gave a valerate (starting with N2, H2 not added) of 1.7 µmol and a hydrogen production (when H2 was added to initial headspace) of -179 µmol.
